Data taken from PubChem BioAssay (NCI).
Values joined by “and” are separate entries in the source; they are usually repeats but may differ in a detail not shown here. Equal entries are not always repeated.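 48-hour exposure; five concentrations; linearly interpolated endpoints. GI50 = concentration required for 50% inhibition of growth. At the TGI there is no net growth.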

Legend:
Assay in all cases: NCI tumour cell line growth inhibition, 48 h
[1] = tested on: MDA-N
[2] = tested on: SNB-78 CNS
[3] = tested on: LXFL 529 NSCLC
[4] = tested on: DMS 273 small cell lung
[5] = tested on: XF 498 CNS
[6] = tested on: KM20L2 colon
[7] = tested on: DMS 114 small cell lung
[8] = tested on: HOP-18 NSCLC
[9] = tested on: RXF-631 renal
[10] = tested on: P388 leukemia
[11] = tested on: SN12K1 renal

Row | Structure (SMILES) | TGI [1] | TGI [2] | TGI [3] | TGI [4] | TGI [5] | TGI [6] | TGI [7] | TGI [8] | TGI [9] | other results
1 | Oc1oc(-c2ccccc2)nc1/C=C1/C=NN=N1 | > 100 µM |  |  |  |  |  |  |  |  | 
2 | CCC(C)c1cnc(CC(C)C)c(=O)[nH]1 (stereo not drawn) | > 100 µM |  |  |  |  |  |  |  |  | 
3 | c1cc(C2N3CCCN2CC3)ccn1 (stereo not drawn) | > 100 µM |  |  |  |  |  |  |  |  | 
4 | CCCCCCCCCCCCOC(=S)NC |  | 61.8 µM | 31.4 µM | 34.4 µM | 35.7 µM | 33.9 µM | 37.5 µM | 50.1 µM |  | 
5 | Cc1cccc2cc3ccc4ccccc4c3cc12 | > 100 µM |  |  |  |  |  |  |  |  | 
6 | CN(/C(=N\O)c1ccccc1)c1ccccc1 |  | 88.7 µM | > 100 µM | 50.7 µM |  | 41.5 µM | 86.1 µM |  |  | 
7 | COc1ccc(NCc2c(O)ccc3ccccc23)cc1 | > 100 µM |  |  |  |  |  |  |  |  | 
8 | C[C@@]1(CBr)C[C@@](C)(/C=C/Cl)[C@@H](Cl)C[C@H]1Cl |  | 14 µM | 21.7 µM | 22.8 µM | 24.5 µM | 24.6 µM | 25.3 µM | 26.4 µM | 24.2 µM | 
9 | C=C(C)C1CCC2(CO)C(O)CC3(C)C(CCC4C5(C)CCC(O)C(C)(C)C5CCC43C)C12 (stereo not drawn) | > 100 µM |  |  |  |  |  |  |  |  | 
10 | O/N=C1/C(=C/c2ccc(Cl)cc2)CCCC1C(NO)c1ccc(Cl)cc1 (stereo not drawn) |  | 48.5 µM | > 100 µM | 41.2 µM | 60.1 µM | 36.6 µM | 81.8 µM | 55.1 µM | 41 µM | 
11 | CCCCc1oc2ccccc2c1C(=O)c1cc(I)c(OCCN(CC)CC)c(I)c1 |  | 25 µM |  | 7.74 µM | 8.25 µM |  |  | 1.29 µM |  | TGI [10]: 11.2 µM; TGI [11]: 7.45 µM
12 | NC(N)=N/N=C(/c1ccccc1)c1ccc(O)cc1O | 28.6 µM |  |  |  |  |  |  |  |  | 
13 | C=CC1=C(C)C(Cc2[nH]c(/C=c3\[nH]/c(=C/C4=NC(=O)C(C)/C4=C\C)c(C)c3CCC(=O)O)c(CCC(=O)OC)c2C)NC1=O (stereo not drawn) | 66.7 µM |  |  |  |  |  |  |  |  | GI50 [1]: 25.6 µM
14 | Nc1n[n+]([O-])c2cnccc2[n+]1[O-] | 36.6 µM |  |  |  |  |  |  |  |  | 
15 | CCc1ccccc1NC(=O)C1=C(C)NC(C)=C(C(=O)Nc2ccccc2CC)C1c1ccc(NC(C)=O)cc1 |  | 82.1 µM | 87.2 µM |  |  | 58.8 µM | > 100 µM |  |  | 
16 | CCC[CH2][Sn]1([CH2]CCC)[O]CC([CH2][Sn]([c]2ccccc2)([c]2ccccc2)[c]2ccccc2)[O]1 (stereo not drawn) |  | 26.4 µM |  |  | 28.6 µM |  | 13.5 µM | 25.2 µM | 30.5 µM | GI50 [2]: 10.2 µM; GI50 [5]: 15.3 µM; GI50 [7]: 3.18 µM; GI50 [9]: 10.7 µM; GI50 [8]: 12.7 µM
17 | CC(=O)OC1C/C(C)=C/[C@H](O)CC(C)/C=C/[C@@]2(C)CCC(C(C)(C)O)C12 (stereo partly drawn) |  | > 100 µM | > 100 µM | > 100 µM | > 100 µM | > 100 µM | > 100 µM | > 100 µM | > 100 µM | 
18 | COC(=O)c1cccc2c1Oc1ccccc1S2 | > 100 µM |  |  |  |  |  |  |  |  | 
19 | COc1cc(CCC(=O)NS(=O)(=O)c2ccccc2)cc(OC)c1OC |  | > 100 µM | > 100 µM | > 100 µM | > 100 µM | > 100 µM | > 100 µM | > 100 µM |  | 
20 | CN(C(=O)C1CC1)C1C2CN3CCC(O2)C13 (stereo not drawn) |  | > 100 µM | > 100 µM | > 100 µM |  | > 100 µM | > 100 µM | > 100 µM |  | 
21 | CCOC(CN(C)C(=O)OCC(Cl)(Cl)Cl)OCC | > 100 µM |  |  |  |  |  |  |  |  | 
22 | c1ccc([P+](CCC[P+](c2ccccc2)(c2ccccc2)c2ccccc2)(c2ccccc2)c2ccccc2)cc1 |  | > 100 µM | > 100 µM | 47.9 µM | 77.9 µM | > 100 µM | 71 µM | > 100 µM | > 100 µM | 
23 | CC(=O)[CH-]C(=O)c1ccccc1.CC(=O)[CH-]C(=O)c1ccccc1.CC[O-].O=C1C=C([O-])C(=O)c2ccccc21.[Ti+4] |  |  | > 100 µM | > 100 µM |  | > 100 µM |  | > 100 µM |  | GI50 [3]: 48.8 µM; GI50 [4]: 96.4 µM; GI50 [6]: 42.4 µM; GI50 [8]: 95.4 µM

Row | Structure (SMILES) | TGI [1] | TGI [2] | TGI [3] | TGI [4] | TGI [5] | TGI [6] | TGI [7] | TGI [8] | TGI [9] | other results
24 | COC(=O)C1CCC(N2C(=O)CCC2C(=O)OC)=N1 (stereo not drawn) |  | > 100 µM | > 100 µM | > 100 µM | > 100 µM | > 100 µM |  | > 100 µM | > 100 µM | 
25 | CC(=O)Oc1cc(OC(C)=O)c2cc3c(cc2c1OC(C)=O)C(=O)C1(CCCC1)C3=O |  | 50 µM |  | 35.8 µM | 30 µM | 46.3 µM | 31.6 µM | 38.5 µM |  | 
26 | CCCCCCCCCCCCCCCCCCOCC1(COP(=O)([O-])OCC[N+](C)(C)C)CCCO1 (stereo not drawn) |  | 29.5 µM | 16.6 µM | 3.13 µM | 20.5 µM | 11.9 µM | 18.1 µM | 10.9 µM |  | 
27 | O=C(O)C1=C(Cl)c2ccccc2S1(=O)=O |  | > 100 µM | > 100 µM |  | > 100 µM | > 100 µM | > 100 µM |  | > 100 µM | 
28 | CC(=O)[CH-]C(=O)c1ccccc1.CC(=O)[CH-]C(=O)c1ccccc1.CC12CC3(C)CC(C)(C1)CC([O-])(C2)C3.CC[O-].[Ti+4] |  |  |  | > 100 µM |  | > 100 µM |  | > 100 µM |  | GI50 [4]: 33.4 µM; GI50 [6]: 35.2 µM; GI50 [8]: 37.4 µM
29 | CC(C)c1ccc(O)c(O)c(=O)c1 (tested in a mixture with another compound) | > 100 µM |  |  |  |  |  |  |  |  | 
30 | Cn1c(=O)c2[nH]cnc2n(CC(=O)O)c1=O |  | > 100 µM | > 100 µM | > 100 µM | > 100 µM | > 100 µM | > 100 µM |  | > 100 µM | 
31 | O/N=C1/C(=C/c2ccccc2)CCCC1C(NO)c1ccccc1 (stereo not drawn) |  | > 100 µM | > 100 µM | > 100 µM | 99.2 µM | > 100 µM | > 100 µM | > 100 µM | > 100 µM | 
32 | CN(Cc1ccccc1)c1nc(=[N+](C)C)ss1 |  | > 100 µM | > 100 µM | > 100 µM | > 100 µM | > 100 µM | > 100 µM | > 100 µM | > 100 µM | 
33 | NC(=O)N/N=C1/CCCC/C1=C\c1ccccc1 |  | > 100 µM | > 100 µM | > 100 µM |  | > 100 µM | > 100 µM | > 100 µM | > 100 µM | 
34 | CN1CCN(c2ccc([N+](=O)[O-])c3no[n+]([O-])c23)CC1 | 2.74 µM |  |  |  |  |  |  |  |  | 
35 | NC(=O)C12CCC1C1CCCCC12N1CCOCC1 (stereo not drawn) |  | > 100 µM | > 100 µM |  |  | > 100 µM |  | > 100 µM | > 100 µM | 
36 | Cc1cccc(NC(=O)Cc2nc3ccccc3s2)c1C |  |  | > 100 µM | > 100 µM | > 100 µM | > 100 µM | > 100 µM |  | > 100 µM | 
37 | N#CNc1nc(C(=O)Nc2ccc(Cl)cc2)cc(-c2ccccc2)n1 |  | > 100 µM | > 100 µM | > 100 µM | > 100 µM | > 100 µM | > 100 µM | > 100 µM | > 100 µM | 
38 | C=C(C)C(=O)N1c2ccc(OC)cc2CC1C(=O)OCC (stereo not drawn) | > 100 µM |  |  |  |  |  |  |  |  | 
39 | CC(C)(C)[Si](Nc1ccccc1)(c1ccccc1)c1ccccc1 |  | 30.4 µM |  | 27.3 µM | 27.8 µM | 31.7 µM | 26.3 µM | 26.7 µM | 29.6 µM | 
40 | CN(C)NC(=S)NC12CC3CC(CC(C3)C1)C2 |  | > 100 µM | > 100 µM | > 100 µM | > 100 µM | > 100 µM | > 100 µM | > 100 µM |  | 
41 | O=C1c2c(O)cccc2C(C(=O)CCCC(=O)C2c3cccc(O)c3C(=O)c3c(O)cccc32)c2cccc(O)c21 | 3.39 µM | 0.785 µM | 0.48 µM | 1.26 µM | 0.226 µM | 8.68 µM | 0.502 µM | 0.828 µM | 3.99 µM | 
42 | CO[C@@]12[C@H](COC(N)=O)C3=C(C(=O)C(C)=C(N)C3=O)N1C[C@@H]1N[C@@H]12 | 7.44 µM and 19.1 µM |  | 7.53 µM | 3.6 µM |  | 10.2 µM | 5.08 µM | 7.59 µM |  | TGI [10]: 9.62 µM; TGI [11]: 7.65 µM; GI50 [1]: 2.11 µM and 2.67 µM
43 | CC(C)[C@H](O)C(=O)N[C@H]1Cc2ccc3c(c2)[C@]24C5=C(N=C(O5)[C@H](C(C)C)NC1=O)c1nc(Cl)c(o1)-c1c(Cl)[nH]c5cccc(c15)-c1cccc2c1N[C@H]4O3 | 0.00429 µM |  |  |  |  |  |  |  |  | 
44 | CCCCCC/C=C/CCCCCCCc1cccc(O)c1C(=O)O |  | > 100 µM | > 100 µM | > 100 µM | > 100 µM | > 100 µM | > 100 µM | > 100 µM | > 100 µM | 
45 | O=C(Cc1nc2ccccc2s1)C(=O)Nc1ccc(Cl)cc1Cl |  | > 100 µM | > 100 µM | > 100 µM | > 100 µM | > 100 µM |  |  | > 100 µM | 
46 | C[n+]1ccc2[nH]c3ccccc3c2c1 |  | > 100 µM | > 100 µM | > 100 µM |  | > 100 µM |  | > 100 µM |  | 
